Here are results for 39 molecules from ChEMBL document CHEMBL1201862, “PubChem BioAssay data set” (2004).

The structures appear in SMILES notation. Calls of active or inactive are those of the source.

Among the targets are Cytochrome P450 2C9 (Homo sapiens, UniProt P11712); Cytochrome P450 3A4 (Homo sapiens, UniProt P08684); Cytochrome P450 2D6 (Homo sapiens, UniProt P10635).
Another assay has as its target T1, Cytochrome P450 1A2 (Homo sapiens, UniProt P05177).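 Further: PubChem cytochrome P450 panel assay, CYP1A2 panel member.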
T1 sequence (P05177 whole entry): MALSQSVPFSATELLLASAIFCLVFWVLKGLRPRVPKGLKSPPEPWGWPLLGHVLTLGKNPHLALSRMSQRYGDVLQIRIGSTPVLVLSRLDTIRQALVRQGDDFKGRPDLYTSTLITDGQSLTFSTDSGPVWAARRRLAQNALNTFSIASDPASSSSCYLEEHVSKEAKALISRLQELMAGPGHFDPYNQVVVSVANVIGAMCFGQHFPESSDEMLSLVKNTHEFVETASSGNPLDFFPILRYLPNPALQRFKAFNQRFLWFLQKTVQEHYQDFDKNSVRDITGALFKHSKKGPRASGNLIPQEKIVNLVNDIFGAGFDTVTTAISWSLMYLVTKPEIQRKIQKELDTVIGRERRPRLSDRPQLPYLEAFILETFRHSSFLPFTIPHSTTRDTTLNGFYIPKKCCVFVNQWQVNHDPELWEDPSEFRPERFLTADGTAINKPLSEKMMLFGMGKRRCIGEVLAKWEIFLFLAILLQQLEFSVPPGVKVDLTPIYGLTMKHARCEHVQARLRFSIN

A further assay addresses Cytochrome P450 2C19 (Homo sapiens, UniProt P33261). Description: Cytochrome panel assay with activity outcomes. Panel member name: p450-cyp2c19 Compounds with AC50 equal or less than 10 uM are considered active. The settings on record: read-out: AC50. Format: functional.
A short description of assay [1]: viability of uninfected HEp-2 cells – cell-based, HTS, cytotoxicity control for RSV inhibitor project, dose response (AID 2410). The class given is functional. Particulars: human respiratory syncytial virus.
A short description of assay [2]: NIH3T3 cell viability loss – ATP luminescence, mouse fibroblasts, counter-screen, dose response (AID 2010).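 Further: cells exposed to compound for about 90 hours before reading.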 The class given is functional, cell-based.
The nature of assay [3]: Trypanosoma cruzi growth suppression in host cells – NIH3T3 host cells, beta-gal luminescence, confirmation (AID 2044).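 Further: intracellular parasites grown in NIH/3T3 mouse fibroblasts as host cells; luminescent beta-galactosidase reporter signal from transgenic T. cruzi replicating inside host cells; inhibitors lower the luminescence signal.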 The class given is functional, cell-based.
Assay [4] addresses T2, Corticotropin-releasing factor receptor 2/Corticotropin-releasing factor-binding protein (Homo sapiens, UniProt P24387+Q13324).
T2 sequence (Q13324 whole entry): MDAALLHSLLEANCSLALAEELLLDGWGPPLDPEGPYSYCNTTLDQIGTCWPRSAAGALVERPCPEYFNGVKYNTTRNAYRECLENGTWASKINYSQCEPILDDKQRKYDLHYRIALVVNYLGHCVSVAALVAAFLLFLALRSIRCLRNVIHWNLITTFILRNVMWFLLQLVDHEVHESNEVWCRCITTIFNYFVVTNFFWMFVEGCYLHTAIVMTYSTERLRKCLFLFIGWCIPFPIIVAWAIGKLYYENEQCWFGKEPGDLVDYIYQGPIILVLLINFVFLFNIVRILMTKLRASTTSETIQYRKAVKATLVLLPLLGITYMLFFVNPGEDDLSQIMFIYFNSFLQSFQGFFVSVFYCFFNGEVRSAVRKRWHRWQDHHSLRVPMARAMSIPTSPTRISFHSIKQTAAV
T2 sequence (P24387 whole entry): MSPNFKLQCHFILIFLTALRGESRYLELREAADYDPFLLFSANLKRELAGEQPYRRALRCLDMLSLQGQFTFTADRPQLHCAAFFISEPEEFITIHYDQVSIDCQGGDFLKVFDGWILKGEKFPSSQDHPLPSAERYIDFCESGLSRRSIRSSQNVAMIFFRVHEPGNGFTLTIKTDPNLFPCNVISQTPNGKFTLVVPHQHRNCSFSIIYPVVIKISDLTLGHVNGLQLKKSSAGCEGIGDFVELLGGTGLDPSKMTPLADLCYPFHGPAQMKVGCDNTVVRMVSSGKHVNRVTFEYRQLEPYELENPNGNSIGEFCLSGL
Description: activators of CRF receptor 2 with binding protein – uHTS hits, confirmation (AID 602473). Format: functional. Particulars: read-out: EC50_Mean.

Cytochrome P450 2D6, sequence (P10635 whole entry): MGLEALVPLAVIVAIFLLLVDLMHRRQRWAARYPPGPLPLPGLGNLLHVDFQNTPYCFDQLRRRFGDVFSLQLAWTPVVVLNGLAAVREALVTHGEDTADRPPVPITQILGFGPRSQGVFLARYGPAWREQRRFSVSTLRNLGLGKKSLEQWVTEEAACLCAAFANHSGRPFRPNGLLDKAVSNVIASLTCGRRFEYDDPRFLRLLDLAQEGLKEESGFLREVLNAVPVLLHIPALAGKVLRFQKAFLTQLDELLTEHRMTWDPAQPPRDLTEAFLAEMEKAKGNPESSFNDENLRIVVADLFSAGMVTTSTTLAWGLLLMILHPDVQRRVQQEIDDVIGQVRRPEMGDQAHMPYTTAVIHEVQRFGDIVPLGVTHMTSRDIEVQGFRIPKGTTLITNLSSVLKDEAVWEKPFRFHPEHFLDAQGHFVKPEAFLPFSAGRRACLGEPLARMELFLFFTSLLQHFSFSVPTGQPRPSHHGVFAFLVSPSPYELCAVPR
Cytochrome P450 3A4, sequence (P08684 whole entry): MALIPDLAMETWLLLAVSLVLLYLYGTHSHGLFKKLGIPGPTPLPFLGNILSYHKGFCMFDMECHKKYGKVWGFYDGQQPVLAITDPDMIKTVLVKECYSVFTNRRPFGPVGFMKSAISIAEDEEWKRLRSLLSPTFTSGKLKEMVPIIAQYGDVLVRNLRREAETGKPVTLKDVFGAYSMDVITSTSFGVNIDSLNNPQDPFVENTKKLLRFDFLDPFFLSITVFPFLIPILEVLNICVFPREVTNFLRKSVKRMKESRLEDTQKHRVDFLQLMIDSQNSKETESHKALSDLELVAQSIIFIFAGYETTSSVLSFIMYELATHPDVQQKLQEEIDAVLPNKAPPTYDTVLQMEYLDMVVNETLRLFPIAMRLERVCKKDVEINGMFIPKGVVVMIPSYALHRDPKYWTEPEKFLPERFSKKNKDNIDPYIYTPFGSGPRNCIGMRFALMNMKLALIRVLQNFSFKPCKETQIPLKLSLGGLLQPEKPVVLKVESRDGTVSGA
Cytochrome P450 2C9, sequence (P11712 whole entry): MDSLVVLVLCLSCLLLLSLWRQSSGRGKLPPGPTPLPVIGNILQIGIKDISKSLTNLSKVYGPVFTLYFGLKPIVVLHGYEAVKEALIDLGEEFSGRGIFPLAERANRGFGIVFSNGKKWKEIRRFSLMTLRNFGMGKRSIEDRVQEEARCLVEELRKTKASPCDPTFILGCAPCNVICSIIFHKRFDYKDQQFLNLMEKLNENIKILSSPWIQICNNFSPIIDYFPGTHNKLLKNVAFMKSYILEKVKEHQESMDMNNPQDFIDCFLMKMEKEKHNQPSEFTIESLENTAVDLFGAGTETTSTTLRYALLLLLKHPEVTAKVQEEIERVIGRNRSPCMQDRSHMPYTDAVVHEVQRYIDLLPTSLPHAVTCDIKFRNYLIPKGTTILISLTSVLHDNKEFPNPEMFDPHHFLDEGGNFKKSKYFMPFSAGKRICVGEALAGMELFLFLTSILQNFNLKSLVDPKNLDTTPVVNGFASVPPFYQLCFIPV
Cytochrome P450 2C19, sequence (P33261 whole entry): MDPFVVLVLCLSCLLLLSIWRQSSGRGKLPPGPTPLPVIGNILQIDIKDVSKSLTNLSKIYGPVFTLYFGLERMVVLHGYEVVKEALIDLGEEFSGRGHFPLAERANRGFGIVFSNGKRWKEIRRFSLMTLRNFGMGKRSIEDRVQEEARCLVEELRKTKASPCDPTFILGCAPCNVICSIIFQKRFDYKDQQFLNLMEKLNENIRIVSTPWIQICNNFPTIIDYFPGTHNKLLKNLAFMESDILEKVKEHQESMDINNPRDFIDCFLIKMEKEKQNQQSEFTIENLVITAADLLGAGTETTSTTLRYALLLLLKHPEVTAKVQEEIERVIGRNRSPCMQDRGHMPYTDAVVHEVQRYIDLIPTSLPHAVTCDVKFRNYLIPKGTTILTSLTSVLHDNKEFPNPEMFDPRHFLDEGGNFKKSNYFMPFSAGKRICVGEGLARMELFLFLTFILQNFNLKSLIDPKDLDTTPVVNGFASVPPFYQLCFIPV

Take `CN1CCN(c2ncc3nc(-c4ccccc4)c(=O)n(Cc4cccs4)c3n2)CC1`: at Cytochrome P450 1A2, the concentration at half-maximal activity (AC50) was 15.8 µM (inconclusive).

For `COc1ccc(C(=O)N2CCC3(CCCN(C(=O)Nc4cccc(C#N)c4)C3)CC2)cc1`, the concentration at half-maximal activity (AC50) was 39.8 µM (inconclusive) on Cytochrome P450 2C9, 39.8 µM (inconclusive) on Cytochrome P450 2C19 and 15.8 µM (inconclusive) at Cytochrome P450 1A2. With `CN1CCc2nc3ccc(F)cc3c(C(N)=O)c2C1`, the figures for the half-maximal activity concentration (AC50) on Cytochrome P450 2C9, at Cytochrome P450 2C19 and on Cytochrome P450 1A2 were 17.8 µM (inconclusive), 39.8 µM (inconclusive) and 25.1 µM (inconclusive), respectively. In the case of `O=C(CN1CCN(S(=O)(=O)c2ccc(Br)cc2)CC1)N/N=C/c1ccc(Br)s1`, in [1], the 50% cytotoxic concentration (CC50) was 22.2 µM (active). For the same molecule, the EC50 in [2] was > 60 µM (not active); in assay [3] it was 2.55 µM (active). Turning to `NC(=O)OC[C@H](O)COc1ccc(Cl)cc1`, the AC50 at Cytochrome P450 1A2 was 10 µM (inconclusive). On to `CCC(C)OC(=O)C1=C(C)NC(=O)CC1c1ccccc1OC` (stereo unspecified), for which the values for the half-maximal activity concentration (AC50) on Cytochrome P450 3A4 and on Cytochrome P450 1A2 were 39.8 µM (inconclusive) and 15.8 µM (inconclusive), respectively. For the molecule `O=c1c(-c2cccc(Cl)c2)nc2cncnc2n1Cc1ccccc1`, the AC50 at Cytochrome P450 2D6 is 39.8 µM (inconclusive); on Cytochrome P450 2C19, 0.0398 µM (inconclusive).

Turning to `CC(C)CN1CCCC2(CCN(C(=O)c3cc(C(F)(F)F)cc(C(F)(F)F)c3)CC2)C1`, the figures for the AC50 on Cytochrome P450 2C9, at Cytochrome P450 3A4 and at Cytochrome P450 1A2 were 39.8 µM (inconclusive), 15.8 µM (inconclusive) and 12.6 µM (inconclusive), respectively. Turning to `CC(=O)[C@@H]1CC[C@H]2[C@H]3CC[C@H]4C[C@@H](O)CC[C@]4(C)[C@@H]3CC[C@]12C`, the AC50 at Cytochrome P450 2C19 is 20 µM (inconclusive); at Cytochrome P450 3A4, 15.8 µM (inconclusive); at Cytochrome P450 1A2, 10 µM (inconclusive). On to `CN(C)c1ncnc2ccc(-c3cccnc3)cc12`, for which the AC50 at Cytochrome P450 2C9 is 1.26 µM (inconclusive); at Cytochrome P450 2D6, 39.8 µM (inconclusive). In the case of `Cc1ccc([N+](=O)[O-])cc1NC(=S)NC(=O)CC(C)(C)C`, the AC50 at Cytochrome P450 2D6 was 12.6 µM (inconclusive); at Cytochrome P450 3A4, 22.4 µM (inconclusive).

As for `CCN1C(=O)C(CC(=O)Nc2ccc(OC)cc2)N(Cc2cccs2)C1=S` (stereo unspecified), on Cytochrome P450 2D6, the AC50 was 14.1 µM (inconclusive). On to `COc1ccccc1CN1CC[C@@]2(CCCN(C(=O)Oc3ccccc3)C2)C1`, for which the AC50 is 31.6 µM (inconclusive) at Cytochrome P450 3A4 and 10 µM (inconclusive) on Cytochrome P450 1A2. Regarding `Cc1cccc(CNc2ccnc(-c3ccccc3C(F)(F)F)n2)c1`, the figures for the concentration at half-maximal activity (AC50) at Cytochrome P450 2C9, on Cytochrome P450 2D6 and at Cytochrome P450 3A4 were 1.26 µM (inconclusive), 25.1 µM (inconclusive) and 3.16 µM (inconclusive), respectively. As for `NC[C@@H]1O[C@H](c2ccccc2)Cc2c1ccc(O)c2O`, the AC50 was 31.6 µM (inconclusive) on Cytochrome P450 2D6, 31.6 µM (inconclusive) on Cytochrome P450 3A4 and 15.8 µM (inconclusive) on Cytochrome P450 1A2. With `CC1(c2ccccc2)NC(=O)N(CC(=O)NCCC2=CCCCC2)C1=O` (stereo unspecified), the AC50 on Cytochrome P450 2D6 is 22.4 µM (inconclusive); at Cytochrome P450 3A4 it was 20 µM (inconclusive). As to `CN1CCN(C(c2ccccc2)c2ccccc2)CC1` [CYCLIZINE], at Cytochrome P450 2D6, the AC50 is 7.94 µM (inconclusive). In the case of `CC(=O)O[C@H]1CC[C@@]2(C)C(=CC[C@@H]3[C@H]4CC[C@@H]([C@H](C)C(=O)O)[C@]4(C)CC[C@H]32)C1`, the AC50 on Cytochrome P450 1A2 was 3.16 µM (inconclusive). For `COc1ccccc1NC(=O)C1CCN(S(=O)(=O)c2ccc3c(c2)NC(=O)C(C)S3)CC1` (stereo unspecified), the CC50 in assay [1] was 20.2 µM (active). Regarding `COc1ccc(C(=O)Nc2ccccc2)cc1NC(=O)c1ccc([N+](=O)[O-])cc1`, in assay [1], the CC50 is > 50 µM (active). Moreover, the EC50 was > 60 µM (not active) in [2] and 1.33 µM (active) in [3]. For `Cc1nc2cnc(N3CCN(C)CC3)nc2n(Cc2cccs2)c1=O`, the AC50 on Cytochrome P450 2D6 is 15.8 µM (inconclusive); at Cytochrome P450 3A4, 25.1 µM (inconclusive).

Turning to `Cc1ccccc1[C@]1(C)ON(c2ccccc2C(F)(F)F)C1=O`, the half-maximal cytotoxic concentration (CC50) in assay [1] is 21.8 µM (active). With `O=C(CN(CC1CCCO1)C(=O)CNS(=O)(=O)c1ccc(Cl)cc1)NCCc1ccccc1` (stereo unspecified), the AC50 at Cytochrome P450 2C9 was 22.4 µM (inconclusive); on Cytochrome P450 2D6 it was 39.8 µM (inconclusive).

As for `Cc1c(N(C)C)c(=O)n(-c2ccccc2)n1C` [AMINOPYRINE], at Cytochrome P450 1A2, the concentration at half-maximal activity (AC50) was 10 µM (inconclusive). On to `CCOc1c2ccc(C(=O)NCc3ccc(OC(F)(F)F)cc3)cc2nn1C`, for which the AC50 on Cytochrome P450 2D6 is 3.16 µM (inconclusive); on Cytochrome P450 2C19 it was 20 µM (inconclusive). As for `CCCCN(CCCC)CCCOC(=O)c1ccc(N)cc1` [BUTACAINE], at Cytochrome P450 1A2, the AC50 was 10 µM (inconclusive).

In the case of `O=C(c1cnccn1)N1CCC2(CCCN(c3ccc(-c4ccccc4)cc3)C2)CC1`, the AC50 on Cytochrome P450 2C9 is 12.6 µM (inconclusive); at Cytochrome P450 1A2 it was 25.1 µM (inconclusive). As for `O=C(N/N=C/c1ccc(Br)s1)c1c[nH]c2ccccc12`, the CC50 in [1] is 37.3 µM (active).

`CCCCCCCCC(=O)N/N=C/c1cccc(Br)c1`: the AC50 at Cytochrome P450 2D6 is 7.08 µM (inconclusive). Consider `COC(=O)c1nn(-c2ccccc2)c(Cl)c1/C=N/OCc1ccc(Cl)cc1Cl`, for which the CC50 in [1] was 23.8 µM (active).

Turning to `CCOC(=O)c1c(C)[nH]c(N=Nc2ccccc2)c1C`, in [1], the cytotoxic concentration (CC50) is 34.9 µM (active). Take `COc1cccc(C(=O)Nc2nc3c(s2)CN(C)CC3)c1`: the AC50 on Cytochrome P450 2D6 is 25.1 µM (inconclusive).

Turning to `CNC(=O)C1CCN(S(=O)(=O)c2c(C)noc2/C=C/c2ccc(OC)cc2)CC1`, in assay [4], the EC50 is > 53 µM (inactive). As for `Cc1ccc(C(=O)N/N=C/c2nc3ccccc3n2C)cc1`, the figures for the AC50 on Cytochrome P450 2C9, on Cytochrome P450 2C19 and at Cytochrome P450 3A4 were 12.6 µM (inconclusive), 15.8 µM (inconclusive) and 3.16 µM (inconclusive), respectively. With `O=S(=O)(c1ccccc1)N1CCC[C@@]2(CCN(Cc3ccccc3)C2)C1`, the values for the concentration at half-maximal activity (AC50) on Cytochrome P450 3A4 and at Cytochrome P450 1A2 were 1.26 µM (inconclusive) and 20 µM (inconclusive), respectively. As for `O=C(COc1cccc2ccccc12)N/N=C/c1ccc(Sc2nc3ccccc3s2)o1`, the CC50 in [1] is 10.8 µM (active). Turning to `CC(C)C(=O)/N=c1\sc2cccc(F)c2n1C`, the CC50 in assay [1] is > 50 µM (active). As for `Cc1nc(N)sc1CCN` [AMTHAMINE], at Cytochrome P450 1A2, the AC50 is 31.6 µM (inconclusive). For `Nc1nc(CSc2nnnn2-c2ccc(Cl)cc2)nc(N2CCOCC2)n1`, the AC50 on Cytochrome P450 2C9 was 5.62 µM (inconclusive); on Cytochrome P450 2D6, 2.51 µM (inconclusive); on Cytochrome P450 2C19, 1 µM (inconclusive); at Cytochrome P450 1A2 it was 2.51 µM (inconclusive).
